# Assay results taken from patent publication US20240270810A1, “PREPARATION AND APPLICATION OF POLYPEPTIDE” (GUANGDONG RAYNOVENT BIOTECH CO., LTD., priority 2021, published 2024).
# *1 amine or outer side, *2 acyl side, *3 side chain or, on linkers, in order; H or OH if unused. Where a SMILES comes first, the peptide text is derived from it. Bridges are numbered along the chain shown (N, C = ends). [ ]: non-standard residue; d: D form. X1 = O=C(O)CCCCCCCCCCCCCCCCCCC(=O)N[C@@H](CCC(=O)NCCOCCOCC(=O)NCCOCCOCC(=O)N[C@@H](CCC(=O)[*:1])C(=O)[*:2])C(=O)O; Aib = CC(C)(N)C(=O)O
# T1: GIPR (Homo sapiens, UniProt P48546)
# T1 construct: host or cells: CHO
# T1 sequence (P48546 22-466): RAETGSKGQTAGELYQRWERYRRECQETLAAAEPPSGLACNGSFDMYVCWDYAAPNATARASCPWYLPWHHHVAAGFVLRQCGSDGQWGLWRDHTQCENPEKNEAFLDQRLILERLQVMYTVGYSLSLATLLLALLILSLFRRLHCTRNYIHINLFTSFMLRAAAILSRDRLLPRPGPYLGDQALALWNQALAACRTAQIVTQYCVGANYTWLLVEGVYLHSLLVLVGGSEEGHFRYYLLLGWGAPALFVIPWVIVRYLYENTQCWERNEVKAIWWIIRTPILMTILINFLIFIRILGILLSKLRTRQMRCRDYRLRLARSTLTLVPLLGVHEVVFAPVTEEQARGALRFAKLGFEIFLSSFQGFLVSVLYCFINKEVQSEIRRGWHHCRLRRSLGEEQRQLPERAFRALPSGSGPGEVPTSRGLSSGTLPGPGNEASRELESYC
# T2: GIPR (UniProt P48546 22-466, limits assumed)
# T2 sequence (looked up): T1 sequence (P48546 22-466)
# B1: polypeptide compound WX-001 (peptide)
# peptide: YXEGTFTSDYSIXLDKIAQKAFIKWLIAGGPSSGAPPPS
# modifications: Aib at positions 2 and 13; C-terminal amide (-NH2); side-chain amino groups of Lys 20 and Lys 24 bridged by iminodiacetic acid (from Fmoc-Ida-OH) whose nitrogen carries Intermediate A-1 (fatty acid side chain, structure only in a drawing)
# Columns and labels:
# GLP-1R [1] = molecular target: T3, GLP-1R (Homo sapiens, UniProt P43220); experiment: In vitro GLP-1R agonistic activity test (cAMP kit); type: cell-based; settings: HEK293 host cells, without 1% HSA
# T3 construct: host or cells: HEK293
# T3 sequence (P43220 24-463, species assumed): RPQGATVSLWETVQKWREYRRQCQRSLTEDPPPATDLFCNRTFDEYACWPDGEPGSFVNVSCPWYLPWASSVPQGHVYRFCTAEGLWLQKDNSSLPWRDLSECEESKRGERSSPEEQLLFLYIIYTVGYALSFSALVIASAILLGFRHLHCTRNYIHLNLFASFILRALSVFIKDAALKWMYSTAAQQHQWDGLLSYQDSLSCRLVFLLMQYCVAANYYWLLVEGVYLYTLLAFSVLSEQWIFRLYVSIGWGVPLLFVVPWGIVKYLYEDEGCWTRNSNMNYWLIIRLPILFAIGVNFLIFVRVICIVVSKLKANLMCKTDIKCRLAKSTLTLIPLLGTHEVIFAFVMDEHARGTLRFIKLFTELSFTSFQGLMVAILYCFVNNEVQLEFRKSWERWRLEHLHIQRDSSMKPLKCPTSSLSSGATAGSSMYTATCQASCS
# Experimental: (§1) The cell lines were constructed by Wuxi […] (Shanghai) Co., Ltd. See details in Table 1 below. [table] [table] The test compounds were diluted at a 4-fold dilution factor in 10 points, starting from an initial concentration of 30 μM. The dilution was carried out by Bravo. • 1) 100 nL of compounds were transferred to an OptiPlate-384 plate by Echo. • 2) The OptiPlate-384 plate was centrifuged at 1000 rpm for 5 s. • 1) A GLP-1R/GIPR cell cryovial was placed in warm water at 37° C. for rapid thawing. • 2) The cell suspension was transferred into a 15 mL Transfer centrifugal tube and rinsed with 10 mL of HBSS gently. • 3) The centrifugal tube was centrifuged at 1000 rpm at room temperature for 1 min. • 4) The supernatant was discarded. • 5) The bottom cells were gently dispersed, then gently rinsed with 10 mL of HBSS, the centrifugal tube was centrifuged to settle the cells, and finally the cells were resuspended in an experimental buffer. • 6) Cell density and viability were measured by Vi-cell. • 7) The GLP-1R/GIPR cells were diluted with the experimental buffer to a concentration of 2.0*10^5/mL. • 8) […] of the diluted cell suspension was transferred into the OptiPlate-384 plate. • 9) Incubation was performed at room temperature for 30 min. • 1) 10 μL of 800 nM gradient diluted cAMP standard was added into the empty wells of the OptiPlate-384 plate. • 2) 10 μL of cAMP assay reagent was added. • 3) The OptiPlate-384 plate was covered with TopSeal-A film and incubated at room temperature for 60 min. The TopSeal-A film was removed, and readout was performed on En Vision.
# GIPR [2] = molecular target: T1, GIPR; experiment: In vitro GIPR agonistic activity test (cAMP kit); type: cell-based; settings: CHO host cells, without 1% HSA
# Experimental: as §1, with “[table] [table]” left out
# GIPR [3] = molecular target: T2, GIPR; experiment: cell-based or functional assay
# GLP-1R [4] = molecular target: GLP-1R (UniProt P43220 24-463, limits assumed); experiment: cell-based or functional assay
Molecule,EC50 (GLP-1R [1]) [nM],EC50 (GIPR [2]) [nM],"EC50 (nM), cAMP assay on GIPR CHO cells, (+) 1% HSA (GIPR [3]) [nM]","EC50 (nM), cAMP assay on GIPR CHO cells, (-) 1% HSA (GIPR [3]) [nM]","Ratio of EC50 (+) 1% HSA to (-) 1% HSA, cAMP assay (GIPR [3])","EC50 (nM), cAMP assay on GLP-1R HEK293 cells, (+) 1% HSA (GLP-1R [4]) [nM]","EC50 (nM), cAMP assay on GLP-1R HEK293 cells, (-) 1% HSA (GLP-1R [4]) [nM]","Ratio of EC50 (+) 1% HSA to (-) 1% HSA, cAMP assay (GLP-1R [4])"
CC[C@H](C)[C@H](NC(=O)[C@H](CC(C)C)NC(=O)[C@H](Cc1c[nH]c2ccccc12)NC(=O)[C@H](CCC(=O)O)NC(=O)[C@@H](NC(=O)[C@H](Cc1ccccc1)NC(=O)[C@H](C)NC(=O)[C@@H]1CCCCNC(=O)[C@@H](NC(=O)COCCOCCNC(=O)COCCOCCNC(=O)CC[C@H](NC(=O)CCCCCCCCCCCCCCCCCCC(=O)O)C(=O)O)CCC(=O)NCCCC[C@H](NC(=O)[C@H](CCCCN)NC(=O)[C@H](CC(=O)O)NC(=O)[C@H](CC(C)C)NC(=O)C(C)(C)NC(=O)[C@@H](NC(=O)[C@H](CO)NC(=O)[C@H](Cc2ccc(O)cc2)NC(=O)[C@H](CC(=O)O)NC(=O)[C@H](CO)NC(=O)[C@@H](NC(=O)[C@H](Cc2ccccc2)NC(=O)[C@@H](NC(=O)CNC(=O)[C@H](CCC(=O)O)NC(=O)C(C)(C)NC(=O)[C@@H](N)Cc2ccc(O)cc2)[C@@H](C)O)[C@@H](C)O)[C@@H](C)CC)C(=O)N[C@@H](C)C(=O)N[C@@H](CCC(N)=O)C(=O)N1)C(C)C)C(=O)N[C@@H](C)C(=O)NCC(=O)NCC(=O)N1CCC[C@H]1C(=O)N[C@@H](CO)C(=O)N[C@@H](CO)C(=O)NCC(=O)N[C@@H](C)C(=O)N1CCC[C@H]1C(=O)N1CCC[C@H]1C(=O)N1CCC[C@H]1C(=O)N[C@@H](CO)C(N)=O [WX-011] (H-Y[Aib]EGTFTSDYSI[Aib]LDKKAQKAFVEWLIAGGPSSGAPPPS-NH2; linker 17-20 via X1),0.018,0.25,–,–,–,–,–,–
CC[C@H](C)[C@H](NC(=O)[C@H](CC(C)C)NC(=O)[C@H](Cc1c[nH]c2ccccc12)NC(=O)[C@H](CCC(=O)O)NC(=O)[C@@H](NC(=O)[C@H](Cc1ccccc1)NC(=O)[C@H](C)NC(=O)[C@@H]1CCCCNC(=O)CN(C(=O)COCCOCCNC(=O)COCCOCCNC(=O)CC[C@H](NC(=O)CCCCCCCCCCCCCCCCC(=O)O)C(=O)O)CC(=O)NCCCC[C@H](NC(=O)[C@H](CCCCN)NC(=O)[C@H](CC(=O)O)NC(=O)[C@H](CC(C)C)NC(=O)C(C)(C)NC(=O)[C@@H](NC(=O)[C@H](CO)NC(=O)[C@H](Cc2ccc(O)cc2)NC(=O)[C@H](CC(=O)O)NC(=O)[C@H](CO)NC(=O)[C@@H](NC(=O)[C@H](Cc2ccccc2)NC(=O)[C@@H](NC(=O)CNC(=O)[C@H](CCC(=O)O)NC(=O)C(C)(C)NC(=O)[C@@H](N)Cc2ccc(O)cc2)[C@@H](C)O)[C@@H](C)O)[C@@H](C)CC)C(=O)N[C@@H](C)C(=O)N[C@@H](CCC(N)=O)C(=O)N1)C(C)C)C(=O)N[C@@H](C)C(=O)NCC(=O)NCC(=O)N1CCC[C@H]1C(=O)N[C@@H](CO)C(=O)N[C@@H](CO)C(=O)NCC(=O)N[C@@H](C)C(=O)N1CCC[C@H]1C(=O)N1CCC[C@H]1C(=O)N1CCC[C@H]1C(=O)N[C@@H](CO)C(N)=O [WX-012],0.024,0.17,–,–,–,–,–,–
CC[C@H](C)[C@H](NC(=O)[C@H](CC(C)C)NC(=O)[C@H](Cc1c[nH]c2ccccc12)NC(=O)[C@H](CCC(=O)O)NC(=O)[C@@H](NC(=O)[C@H](Cc1ccccc1)NC(=O)[C@H](C)NC(=O)[C@@H]1CCCCNC(=O)CN(C(=O)COCCOCCNC(=O)COCCOCCNC(=O)CC[C@H](NC(=O)CC[C@H](NC(=O)CCCCCCCCCCCCCCCCCCC(=O)O)C(=O)O)C(=O)O)CC(=O)NCCCC[C@H](NC(=O)[C@H](CCCCN)NC(=O)[C@H](CC(=O)O)NC(=O)[C@H](CC(C)C)NC(=O)C(C)(C)NC(=O)[C@@H](NC(=O)[C@H](CO)NC(=O)[C@H](Cc2ccc(O)cc2)NC(=O)[C@H](CC(=O)O)NC(=O)[C@H](CO)NC(=O)[C@@H](NC(=O)[C@H](Cc2ccccc2)NC(=O)[C@@H](NC(=O)CNC(=O)[C@H](CCC(=O)O)NC(=O)C(C)(C)NC(=O)[C@@H](N)Cc2ccc(O)cc2)[C@@H](C)O)[C@@H](C)O)[C@@H](C)CC)C(=O)N[C@@H](C)C(=O)N[C@@H](CCC(N)=O)C(=O)N1)C(C)C)C(=O)N[C@@H](C)C(=O)NCC(=O)NCC(=O)N1CCC[C@H]1C(=O)N[C@@H](CO)C(=O)N[C@@H](CO)C(=O)NCC(=O)N[C@@H](C)C(=O)N1CCC[C@H]1C(=O)N1CCC[C@H]1C(=O)N1CCC[C@H]1C(=O)N[C@@H](CO)C(N)=O [WX-013],0.057,0.18,–,–,–,–,–,–
CC[C@H](C)[C@H](NC(=O)[C@H](CC(C)C)NC(=O)[C@H](Cc1c[nH]c2ccccc12)NC(=O)[C@H](CCC(=O)O)NC(=O)[C@@H](NC(=O)[C@H](Cc1ccccc1)NC(=O)[C@H](C)NC(=O)[C@@H]1CCCCNC(=O)CN(C(=O)COCCOCCNC(=O)COCCOCCNC(=O)CC[C@H](NC(=O)CC[C@H](NC(=O)CCCCCCCCCCCCCCCCC(=O)O)C(=O)O)C(=O)O)CC(=O)NCCCC[C@H](NC(=O)[C@H](CCCCN)NC(=O)[C@H](CC(=O)O)NC(=O)[C@H](CC(C)C)NC(=O)C(C)(C)NC(=O)[C@@H](NC(=O)[C@H](CO)NC(=O)[C@H](Cc2ccc(O)cc2)NC(=O)[C@H](CC(=O)O)NC(=O)[C@H](CO)NC(=O)[C@@H](NC(=O)[C@H](Cc2ccccc2)NC(=O)[C@@H](NC(=O)CNC(=O)[C@H](CCC(=O)O)NC(=O)C(C)(C)NC(=O)[C@@H](N)Cc2ccc(O)cc2)[C@@H](C)O)[C@@H](C)O)[C@@H](C)CC)C(=O)N[C@@H](C)C(=O)N[C@@H](CCC(N)=O)C(=O)N1)C(C)C)C(=O)N[C@@H](C)C(=O)NCC(=O)NCC(=O)N1CCC[C@H]1C(=O)N[C@@H](CO)C(=O)N[C@@H](CO)C(=O)NCC(=O)N[C@@H](C)C(=O)N1CCC[C@H]1C(=O)N1CCC[C@H]1C(=O)N1CCC[C@H]1C(=O)N[C@@H](CO)C(N)=O [WX-014],0.071,0.24,–,–,–,–,–,–
B1,–,–,16,0.324,49.3,16.6,0.0596,279
